# In article PMC6561471 (The Lancet. Oncology, 2018):
# “Also recorded” adds a separate entry of the source.
# Columns and labels:
# [1] = test system: recurrent or metastatic HNSCC; conditions: single-arm study; cited from earlier work
# [2] = test system: patients with recurrent or metastatic HNSCC; test: phase 1b dose escalation; format: in vivo; conditions: with fixed dose of cetuximab; doses 200-800 mg/day; assessed in cycle 1
# [3] = suspension formulation compared with tablet; cited from earlier work
# [4] = test system: nasopharyngeal cancer; conditions: pazopanib tablet formulation 800 mg/day, monotherapy; cited from earlier work
# [5] = test system: patients with recurrent or metastatic HNSCC; test: adverse events graded by NCI-CTCAE version 4.0, all cycles of treatment
# [6] = test system: recurrent or metastatic HNSCC; conditions: first-line treatment; cited from earlier work
compound,measurement,setting,value
CNC(=O)c1cc(Oc2ccc(NC(=O)Nc3ccc(Cl)c(C(F)(F)F)c3)cc2)ccn1 [sorafenib],activity as monotherapy,[1],modest activity
CCN(CC)CCNC(=O)c1c(C)[nH]c(/C=C2\C(=O)Nc3ccc(F)cc32)c1C [sunitinib],activity as monotherapy,[1],modest activity
Cc1ccc(Nc2nccc(N(C)c3ccc4c(C)n(C)nc4c3)n2)cc1S(N)(=O)=O [pazopanib],maximum tolerated dose of pazopanib,[2],not reached
same,decrease of time taken to reach Cmax (Tmax),[3],50%
same,increase of area under the curve (AUC)(0–72 h),[3],33%
same,increase of maximum plasma concentration (Cmax),[3],29%
same,"disease control, patients",[4],55%
same,grade 4 adverse events attributable to pazopanib,[5]; all 31 patients,no grade 4 adverse events
same,most common grade 3 adverse events attributable to pazopanib,[5]; all cycles,"hypertension, anaemia, fatigue, hypoalbuminaemia, and venous thromboembolism; also recorded: hypertension, anaemia, fatigue, hypoalbuminaemia, neutropenia, and diarrhoea"
bevacizumab,effect of addition of bevacizumab to chemotherapy,[6],improvement of progression-free survival and overall survival
